Reference: PMC10853020 (Journal of medicinal chemistry, 2023)

How the values were obtained:
[1] = target: T1, h5-HT2CR (Homo sapiens, UniProt P28335); test: 5-HT-induced Cai^2+ release in h5-HT2CR-CHO cells; format: cell-based; conditions: 1 nM
T1 sequence (P28335 33-458): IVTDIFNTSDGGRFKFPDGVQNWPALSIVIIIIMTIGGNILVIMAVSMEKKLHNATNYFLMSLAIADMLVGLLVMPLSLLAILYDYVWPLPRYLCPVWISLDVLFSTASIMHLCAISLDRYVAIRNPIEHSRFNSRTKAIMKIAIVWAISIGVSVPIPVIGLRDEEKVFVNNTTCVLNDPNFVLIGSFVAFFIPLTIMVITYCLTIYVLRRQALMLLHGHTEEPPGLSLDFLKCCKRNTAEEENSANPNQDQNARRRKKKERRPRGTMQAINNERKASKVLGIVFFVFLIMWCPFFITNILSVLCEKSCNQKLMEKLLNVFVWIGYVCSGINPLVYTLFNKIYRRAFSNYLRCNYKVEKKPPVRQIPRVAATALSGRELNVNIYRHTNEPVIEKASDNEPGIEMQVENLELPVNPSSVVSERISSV

[2] = target: T2, σ2 receptor (Rattus norvegicus, UniProt Q5U3Y7); test: NIMH PDSP radioligand binding displacement
T2 sequence (Q5U3Y7 1-176): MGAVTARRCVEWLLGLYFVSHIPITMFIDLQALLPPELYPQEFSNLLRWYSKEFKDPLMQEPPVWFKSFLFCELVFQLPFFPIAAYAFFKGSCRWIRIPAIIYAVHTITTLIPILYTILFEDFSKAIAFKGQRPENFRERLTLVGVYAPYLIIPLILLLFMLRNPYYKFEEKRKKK

[3] = test system: male Sprague–Dawley rats; test: Novelty-induced; format: in vivo, rat; conditions: 30 mg/kg ip, 30 min prior; vs vehicle; p < 0.0001
[4] = target: HERG (Homo sapiens, UniProt Q12809); test: NIMH PDSP radioligand binding displacement
Sequence of HERG (Q12809 whole entry): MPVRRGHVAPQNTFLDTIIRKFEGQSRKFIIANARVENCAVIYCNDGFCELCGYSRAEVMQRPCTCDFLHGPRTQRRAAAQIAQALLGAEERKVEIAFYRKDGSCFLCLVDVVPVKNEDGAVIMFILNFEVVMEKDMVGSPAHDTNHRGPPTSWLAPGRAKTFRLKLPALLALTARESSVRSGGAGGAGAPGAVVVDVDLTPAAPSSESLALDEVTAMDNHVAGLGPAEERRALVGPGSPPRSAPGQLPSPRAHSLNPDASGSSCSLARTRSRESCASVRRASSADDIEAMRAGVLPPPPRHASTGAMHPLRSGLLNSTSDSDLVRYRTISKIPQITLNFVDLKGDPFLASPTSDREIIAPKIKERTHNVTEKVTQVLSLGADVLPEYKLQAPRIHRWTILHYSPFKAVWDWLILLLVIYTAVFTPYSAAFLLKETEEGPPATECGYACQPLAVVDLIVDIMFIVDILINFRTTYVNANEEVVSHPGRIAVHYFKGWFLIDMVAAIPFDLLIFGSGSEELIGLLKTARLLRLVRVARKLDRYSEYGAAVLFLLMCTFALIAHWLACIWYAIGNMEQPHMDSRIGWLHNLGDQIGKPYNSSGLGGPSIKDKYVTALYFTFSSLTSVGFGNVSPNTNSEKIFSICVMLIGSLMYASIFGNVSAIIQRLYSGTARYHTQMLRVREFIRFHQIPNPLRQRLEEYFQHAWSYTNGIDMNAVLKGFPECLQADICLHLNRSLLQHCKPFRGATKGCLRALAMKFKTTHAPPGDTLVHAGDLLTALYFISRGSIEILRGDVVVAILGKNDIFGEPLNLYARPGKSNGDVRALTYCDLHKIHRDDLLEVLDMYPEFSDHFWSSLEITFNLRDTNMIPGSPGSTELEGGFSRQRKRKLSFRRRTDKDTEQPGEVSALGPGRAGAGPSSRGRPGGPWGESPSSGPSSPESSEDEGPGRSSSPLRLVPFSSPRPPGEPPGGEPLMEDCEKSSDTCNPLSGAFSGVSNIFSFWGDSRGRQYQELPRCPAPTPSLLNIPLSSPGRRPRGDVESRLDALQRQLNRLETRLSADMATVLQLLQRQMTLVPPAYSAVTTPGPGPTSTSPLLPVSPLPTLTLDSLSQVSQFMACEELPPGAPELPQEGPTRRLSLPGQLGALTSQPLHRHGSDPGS

SMILES	5-HT2CR PAM activity [1]	further results
CCCCCCCC/C=C\CCCCCCCC(=O)NCCCO [Compound 8, N-(3-Hydroxypropyl)oleamide]	potentiated 5-HT-evoked Cai^2+ release	
CCCCCCCC/C=C\CCCCCCCC(=O)NC(CO)(CO)CO [Compound 13, N-(1,3-Dihydroxy-2-(hydroxymethyl)propan-2-yl)oleamide]		Ki [2]: 3.6 µM; total ambulations over a 90 min session [3]: significantly reduced total ambulations vs vehicle
CCCCCCCC/C=C\CCCCCCCC(=O)NCC(OCC)OCC [Compound 14, N-(2,2-Diethoxyethyl)oleamide]	did not evoke PAM activity	
CCCCCCCC/C=C\CCCCCCCC(=O)NC[C@H](O)CO [Compound 10, (S)-N-(2,3-Dihydroxypropyl)oleamide]	inactive	
CCCCCCCC/C=C\CCCCCCCC(=O)NC(CO)CO [Compound 11, N-(1,3-Dihydroxypropan-2-yl)oleamide]		displacement of binding to the hERG potassium channel [4]: did not displace binding
